Data reported in ChEMBL document CHEMBL3991601, “The target landscape of clinical kinase drugs” (Science, 2017).
The source made the active and inactive calls. Rule as the data show it, for most assays here: actives have a measured Kd and inactives only a lower limit.

What was measured:
[1] = target: T1, Acyl-CoA dehydrogenase family member 11 (Homo sapiens, UniProt Q709F0)
T1 sequence (Q709F0 whole entry): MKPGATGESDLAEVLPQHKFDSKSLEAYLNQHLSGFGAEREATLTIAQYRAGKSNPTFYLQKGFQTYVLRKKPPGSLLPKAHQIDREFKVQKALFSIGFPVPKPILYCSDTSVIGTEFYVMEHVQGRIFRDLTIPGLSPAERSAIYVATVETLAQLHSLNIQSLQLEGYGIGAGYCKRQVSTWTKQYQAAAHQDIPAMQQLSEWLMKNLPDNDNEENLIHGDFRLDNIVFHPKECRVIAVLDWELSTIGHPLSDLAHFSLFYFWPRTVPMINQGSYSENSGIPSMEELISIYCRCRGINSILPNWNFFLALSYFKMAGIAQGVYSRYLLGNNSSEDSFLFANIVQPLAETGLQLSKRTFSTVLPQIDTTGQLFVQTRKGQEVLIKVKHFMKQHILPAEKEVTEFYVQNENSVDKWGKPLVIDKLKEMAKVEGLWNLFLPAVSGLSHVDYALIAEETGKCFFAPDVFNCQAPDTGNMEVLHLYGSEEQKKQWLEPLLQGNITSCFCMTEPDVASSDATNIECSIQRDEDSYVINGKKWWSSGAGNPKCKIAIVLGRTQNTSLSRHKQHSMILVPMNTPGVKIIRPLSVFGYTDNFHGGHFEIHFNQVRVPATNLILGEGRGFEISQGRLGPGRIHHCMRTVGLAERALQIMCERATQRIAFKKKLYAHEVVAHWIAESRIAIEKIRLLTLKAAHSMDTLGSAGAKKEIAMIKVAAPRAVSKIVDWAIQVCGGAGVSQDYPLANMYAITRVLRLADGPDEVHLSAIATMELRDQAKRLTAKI

[2] = target: T2, Breakpoint cluster region protein (Homo sapiens, UniProt P11274)
T2 sequence (P11274 whole entry): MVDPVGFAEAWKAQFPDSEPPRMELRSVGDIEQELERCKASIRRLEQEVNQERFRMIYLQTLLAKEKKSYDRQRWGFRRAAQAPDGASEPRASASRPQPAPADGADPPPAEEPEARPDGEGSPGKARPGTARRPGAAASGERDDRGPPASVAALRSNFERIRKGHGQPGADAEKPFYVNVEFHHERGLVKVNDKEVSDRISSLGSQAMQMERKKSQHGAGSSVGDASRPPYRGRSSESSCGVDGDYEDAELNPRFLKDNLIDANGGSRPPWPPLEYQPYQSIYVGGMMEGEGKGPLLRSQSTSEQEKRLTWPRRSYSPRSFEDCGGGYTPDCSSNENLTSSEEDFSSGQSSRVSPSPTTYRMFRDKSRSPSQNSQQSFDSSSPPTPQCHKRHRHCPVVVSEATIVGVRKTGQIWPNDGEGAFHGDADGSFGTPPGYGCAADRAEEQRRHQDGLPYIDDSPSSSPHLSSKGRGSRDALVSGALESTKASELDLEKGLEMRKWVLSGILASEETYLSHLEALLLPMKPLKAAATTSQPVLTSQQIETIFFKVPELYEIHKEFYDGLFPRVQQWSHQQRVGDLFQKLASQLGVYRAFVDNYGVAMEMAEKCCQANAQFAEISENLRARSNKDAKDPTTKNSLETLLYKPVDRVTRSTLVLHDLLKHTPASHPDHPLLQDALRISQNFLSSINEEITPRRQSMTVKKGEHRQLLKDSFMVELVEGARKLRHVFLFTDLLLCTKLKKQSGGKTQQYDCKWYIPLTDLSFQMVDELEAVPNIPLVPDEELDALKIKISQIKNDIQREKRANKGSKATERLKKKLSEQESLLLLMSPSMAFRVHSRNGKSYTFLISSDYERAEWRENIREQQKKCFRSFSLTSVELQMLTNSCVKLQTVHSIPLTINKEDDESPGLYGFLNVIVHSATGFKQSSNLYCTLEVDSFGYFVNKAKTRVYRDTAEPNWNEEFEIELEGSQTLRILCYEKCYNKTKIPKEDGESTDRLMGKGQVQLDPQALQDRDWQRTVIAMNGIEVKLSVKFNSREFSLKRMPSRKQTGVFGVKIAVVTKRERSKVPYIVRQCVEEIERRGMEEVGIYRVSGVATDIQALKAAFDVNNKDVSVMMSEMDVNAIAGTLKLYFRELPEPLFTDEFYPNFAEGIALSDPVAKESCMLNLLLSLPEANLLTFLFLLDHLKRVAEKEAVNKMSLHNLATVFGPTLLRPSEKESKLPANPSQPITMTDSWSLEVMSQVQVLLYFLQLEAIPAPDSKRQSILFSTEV

[3] = target: T3, Calcium/calmodulin-dependent protein kinase type IV (Homo sapiens, UniProt Q16566)
T3 sequence (Q16566 whole entry): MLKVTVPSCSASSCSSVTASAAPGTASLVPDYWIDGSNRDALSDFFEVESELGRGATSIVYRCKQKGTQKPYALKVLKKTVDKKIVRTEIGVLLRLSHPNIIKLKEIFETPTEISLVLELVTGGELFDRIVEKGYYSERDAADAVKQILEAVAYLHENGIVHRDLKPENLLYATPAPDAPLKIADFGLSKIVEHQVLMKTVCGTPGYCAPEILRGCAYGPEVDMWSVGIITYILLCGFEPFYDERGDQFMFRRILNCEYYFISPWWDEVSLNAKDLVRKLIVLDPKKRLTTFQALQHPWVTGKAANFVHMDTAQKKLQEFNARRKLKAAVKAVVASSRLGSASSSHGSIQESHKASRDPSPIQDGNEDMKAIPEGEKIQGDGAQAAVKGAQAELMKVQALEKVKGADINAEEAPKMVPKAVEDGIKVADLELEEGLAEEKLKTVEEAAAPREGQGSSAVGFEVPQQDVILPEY

[4] = target: Casein kinase I isoform alpha (Homo sapiens, UniProt P48729)
[5] = target: T4, Ferrochelatase, mitochondrial (Homo sapiens, UniProt P22830)
T4 sequence (P22830 whole entry): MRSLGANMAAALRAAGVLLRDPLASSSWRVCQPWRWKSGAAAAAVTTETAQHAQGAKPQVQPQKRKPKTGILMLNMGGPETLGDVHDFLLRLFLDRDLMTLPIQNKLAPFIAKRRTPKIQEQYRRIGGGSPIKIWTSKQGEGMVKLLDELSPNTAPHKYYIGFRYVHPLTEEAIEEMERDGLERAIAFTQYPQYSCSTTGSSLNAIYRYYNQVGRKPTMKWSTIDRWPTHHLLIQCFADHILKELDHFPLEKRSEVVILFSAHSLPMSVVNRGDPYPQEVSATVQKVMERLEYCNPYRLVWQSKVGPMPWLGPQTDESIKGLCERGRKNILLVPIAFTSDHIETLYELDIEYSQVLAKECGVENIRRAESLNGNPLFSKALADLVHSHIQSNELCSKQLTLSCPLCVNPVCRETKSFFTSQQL

[6] = target: DNA topoisomerase 2-beta (Homo sapiens, UniProt Q02880)
Also: in the data inactive means no Kd found up to 30 µM.

Sequence of DNA topoisomerase 2-beta (Q02880 whole entry): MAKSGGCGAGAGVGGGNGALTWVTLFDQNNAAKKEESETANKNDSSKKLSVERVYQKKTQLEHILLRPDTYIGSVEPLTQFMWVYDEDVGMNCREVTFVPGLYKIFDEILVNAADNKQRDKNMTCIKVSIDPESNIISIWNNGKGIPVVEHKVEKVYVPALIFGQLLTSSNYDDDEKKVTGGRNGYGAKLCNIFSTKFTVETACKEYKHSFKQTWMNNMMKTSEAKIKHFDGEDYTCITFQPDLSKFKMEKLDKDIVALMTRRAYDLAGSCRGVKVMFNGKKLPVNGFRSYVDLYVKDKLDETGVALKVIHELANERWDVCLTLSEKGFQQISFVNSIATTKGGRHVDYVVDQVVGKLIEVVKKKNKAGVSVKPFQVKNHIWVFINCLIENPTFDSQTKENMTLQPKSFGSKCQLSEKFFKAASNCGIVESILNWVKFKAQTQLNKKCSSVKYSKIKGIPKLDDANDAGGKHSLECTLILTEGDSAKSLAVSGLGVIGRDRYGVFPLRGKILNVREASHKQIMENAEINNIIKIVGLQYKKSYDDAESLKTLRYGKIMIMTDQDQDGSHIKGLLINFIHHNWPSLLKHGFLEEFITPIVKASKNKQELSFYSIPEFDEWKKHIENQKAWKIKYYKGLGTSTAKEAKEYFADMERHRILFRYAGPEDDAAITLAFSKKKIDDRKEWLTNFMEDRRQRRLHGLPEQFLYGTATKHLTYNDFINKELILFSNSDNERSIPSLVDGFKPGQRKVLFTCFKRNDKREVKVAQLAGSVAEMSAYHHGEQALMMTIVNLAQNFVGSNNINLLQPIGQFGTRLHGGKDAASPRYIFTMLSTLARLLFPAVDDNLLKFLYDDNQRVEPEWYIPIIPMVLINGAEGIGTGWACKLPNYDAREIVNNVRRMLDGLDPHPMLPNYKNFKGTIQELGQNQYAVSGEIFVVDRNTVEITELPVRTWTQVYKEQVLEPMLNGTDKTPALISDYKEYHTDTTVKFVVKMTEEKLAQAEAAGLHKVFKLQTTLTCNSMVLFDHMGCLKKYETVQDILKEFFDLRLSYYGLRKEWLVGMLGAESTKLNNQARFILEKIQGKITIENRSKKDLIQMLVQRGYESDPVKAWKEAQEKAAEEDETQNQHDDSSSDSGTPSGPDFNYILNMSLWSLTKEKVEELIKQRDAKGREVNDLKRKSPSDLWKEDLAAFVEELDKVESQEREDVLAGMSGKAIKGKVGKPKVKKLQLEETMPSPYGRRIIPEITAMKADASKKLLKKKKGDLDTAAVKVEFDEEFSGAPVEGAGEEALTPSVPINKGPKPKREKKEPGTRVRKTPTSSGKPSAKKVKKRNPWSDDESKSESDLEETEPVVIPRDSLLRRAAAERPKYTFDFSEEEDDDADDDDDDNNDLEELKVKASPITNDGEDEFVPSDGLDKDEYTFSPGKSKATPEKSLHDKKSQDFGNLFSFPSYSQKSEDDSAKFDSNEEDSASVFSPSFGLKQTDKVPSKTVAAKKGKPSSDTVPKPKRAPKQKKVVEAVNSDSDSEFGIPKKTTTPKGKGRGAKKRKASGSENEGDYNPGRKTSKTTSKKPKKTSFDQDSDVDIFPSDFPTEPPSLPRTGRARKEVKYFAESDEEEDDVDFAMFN
Sequence of Casein kinase I isoform alpha (P48729 whole entry, canonical isoform): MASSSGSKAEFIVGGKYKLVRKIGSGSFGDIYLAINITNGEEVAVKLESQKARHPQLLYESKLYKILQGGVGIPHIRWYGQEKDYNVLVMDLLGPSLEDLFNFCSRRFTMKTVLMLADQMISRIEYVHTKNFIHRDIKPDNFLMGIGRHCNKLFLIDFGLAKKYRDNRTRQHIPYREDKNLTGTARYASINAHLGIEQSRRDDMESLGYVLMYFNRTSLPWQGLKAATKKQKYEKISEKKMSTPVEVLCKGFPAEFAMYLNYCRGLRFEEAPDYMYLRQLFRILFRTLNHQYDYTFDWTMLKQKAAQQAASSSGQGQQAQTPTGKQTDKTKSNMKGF

Structure (SMILES)	Kd [1]	Kd [2]	Kd [3]	Kd [4]	Kd [5]	Kd [6]
CCN1CCN(Cc2ccc(-c3cc4c(N[C@H](C)c5ccccc5)ncnc4[nH]3)cc2)CC1 [AEE-788]	> 30 µM (inactive)	0.495 µM (active)	> 30 µM (inactive)	> 30 µM (inactive)	> 30 µM (inactive)	> 30 µM (inactive)
CC[C@H](Nc1ncnc2[nH]cnc12)c1nc2cccc(F)c2c(=O)n1-c1ccccc1 [IDELALISIB]	> 30 µM (inactive)	> 30 µM (inactive)	> 30 µM (inactive)	> 30 µM (inactive)	> 30 µM (inactive)	> 30 µM (inactive)
CNS(=O)(=O)Nc1nccc(Cc2c(C)c3ccc(Oc4ncccn4)cc3oc2=O)c1F [AVUTOMETINIB]	> 30 µM (inactive)	> 30 µM (inactive)	> 30 µM (inactive)	> 30 µM (inactive)	> 30 µM (inactive)	> 30 µM (inactive)
O=C(O)[C@]1(Cc2cccc(Nc3nccs3)n2)CC[C@@H](Oc2cccc(Cl)c2F)CC1 [MK-5108]	> 30 µM (inactive)	0.011 µM (active)	> 30 µM (inactive)	> 30 µM (inactive)	> 30 µM (inactive)	> 30 µM (inactive)
CO[C@H]1C[C@@H]2CC[C@@H](C)[C@@](O)(O2)C(=O)C(=O)N2CCCC[C@H]2C(=O)O[C@H]([C@H](C)C[C@@H]2CC[C@@H](OCCO)[C@H](OC)C2)CC(=O)[C@H](C)/C=C(\C)[C@@H](O)[C@@H](OC)C(=O)[C@H](C)C[C@H](C)/C=C/C=C/C=C/1C [EVEROLIMUS]	> 30 µM (inactive)	> 30 µM (inactive)	> 30 µM (inactive)	> 30 µM (inactive)	> 30 µM (inactive)	> 30 µM (inactive)
C[C@@H](Nc1cc(F)cc(F)c1)c1cc(C(=O)N(C)C)cc2c(=O)cc(N3CCOCC3)oc12 [AZD-8186]	> 30 µM (inactive)	> 30 µM (inactive)	> 30 µM (inactive)	> 30 µM (inactive)	> 30 µM (inactive)	0.936 µM (active)
Cn1cc(-c2ccc3nnc(C(F)(F)c4ccc5ncccc5c4)n3n2)cn1 [JNJ-38877605]	> 30 µM (inactive)	> 30 µM (inactive)	> 30 µM (inactive)	> 30 µM (inactive)	> 30 µM (inactive)	> 30 µM (inactive)
CNC(=O)c1ccc(-c2cnc3ncc(Cc4ccc5ncccc5c4)n3n2)cc1F [CAPMATINIB]	> 30 µM (inactive)	> 30 µM (inactive)	> 30 µM (inactive)	> 30 µM (inactive)	> 30 µM (inactive)	> 30 µM (inactive)
Cc1ccc(S(=O)(=O)Nc2nc3ccccc3nc2Nc2ccc3nsnc3c2)cc1	> 30 µM (inactive)	> 30 µM (inactive)	> 30 µM (inactive)	> 30 µM (inactive)	> 30 µM (inactive)	> 30 µM (inactive)
COc1cc2nccc(Oc3ccc(NC(=O)NC4CC4)c(Cl)c3)c2cc1C(N)=O [LENVATINIB]	> 30 µM (inactive)	4.11 µM (active)	> 30 µM (inactive)	> 30 µM (inactive)	2.81 µM (active)	> 30 µM (inactive)
CN1CCC(COc2cnc(-c3cccc(Cn4nc(-c5cccc(C#N)c5)ccc4=O)c3)nc2)CC1 [TEPOTINIB]	> 30 µM (inactive)	> 30 µM (inactive)	> 30 µM (inactive)	> 30 µM (inactive)	> 30 µM (inactive)	> 30 µM (inactive)
O=C(c1ccc(F)c(F)c1Nc1ccc(I)cc1F)N1CC(O)([C@@H]2CCCCN2)C1 [COBIMETINIB]	> 30 µM (inactive)	> 30 µM (inactive)	> 30 µM (inactive)	> 30 µM (inactive)	> 30 µM (inactive)	> 30 µM (inactive)

Now from value to compound:

Kd [1]	Kd [2]	Kd [3]	Kd [4]	Kd [5]	Kd [6]	Structure (SMILES)
> 30 µM (inactive)	> 30 µM (inactive)	> 30 µM (inactive)	> 30 µM (inactive)	1.42 µM (active)	> 30 µM (inactive)	CCCS(=O)(=O)Nc1ccc(F)c(C(=O)c2c[nH]c3ncc(-c4ccc(Cl)cc4)cc23)c1F [VEMURAFENIB]
> 30 µM (inactive)	> 30 µM (inactive)	> 30 µM (inactive)	> 30 µM (inactive)	> 30 µM (inactive)	> 30 µM (inactive)	CC(=O)Nc1cccc(-n2c(=O)n(C3CC3)c(=O)c3c(Nc4ccc(I)cc4F)n(C)c(=O)c(C)c32)c1 [TRAMETINIB]
> 30 µM (inactive)	> 30 µM (inactive)	> 30 µM (inactive)	> 30 µM (inactive)	> 30 µM (inactive)	> 30 µM (inactive)	CN1N=C(N)c2cn([C@@H]3O[C@H](COP(=O)(O)O)[C@@H](O)[C@H]3O)c3ncnc1c23 [TRICIRIBINE PHOSPHATE]
> 30 µM (inactive)	> 30 µM (inactive)	> 30 µM (inactive)	> 30 µM (inactive)	> 30 µM (inactive)	> 30 µM (inactive)	CC(C)Nc1cc(-c2c[nH]c(C(=O)N[C@H](CO)c3cccc(Cl)c3)c2)c(Cl)cn1 [ULIXERTINIB]
> 30 µM (inactive)	> 30 µM (inactive)	> 30 µM (inactive)	> 30 µM (inactive)	> 30 µM (inactive)	> 30 µM (inactive)	C[C@@H]1CN(Cc2ccc(F)cc2)[C@@H](C)CN1C(=O)c1cc2c(C(=O)C(=O)N(C)C)cn(C)c2cc1Cl [TALMAPIMOD]
> 30 µM (inactive)	> 30 µM (inactive)	> 30 µM (inactive)	> 30 µM (inactive)	> 30 µM (inactive)	> 30 µM (inactive)	CNC(=O)CN1CCC(Oc2cc3c(Nc4cccc(Cl)c4F)ncnc3cc2OC)CC1 [SAPITINIB]
